Results taken from patent US20240132431A1, “METHOD FOR ALKYLATING ACIDIC FUNCTIONAL GROUP” (Chugai Seiyaku Kabushiki Kaisha, priority 2021, published 2024).

Target: T1, Bcl-2 protein (Recombinant Human Bcl-2 Protein) (Homo sapiens, UniProt P10415)
T1 construct: purchased Novus NBP2-34889
Assay: Binding evaluation of mixture library compounds to Bcl-2 using AS-MS (affinity selection mass spectrometry)
Conditions: for ASMS ratio (%) n = 1 / ASMS ratio (%) n = 2: ASMS Ratio(%)=(A−C)/B×100; for ASMS ratio (%) n = 1: replicate n = 1; for ASMS ratio (%) n = 2: replicate n = 2
Summary of the method: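 Bcl-2 binding is scored from LC/MS signal retained with protein through gel-filtration spin columns, normalised to unfiltered and protein-free controls. Incubation: 20 μM protein, […] per compound, 1 h, 23° C.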

[1] = AS-MS on the mixture of 1200 library compounds
[2] = AS-MS, mixture of 1200 compounds, Bcl-2

T1 sequence (P10415 whole entry): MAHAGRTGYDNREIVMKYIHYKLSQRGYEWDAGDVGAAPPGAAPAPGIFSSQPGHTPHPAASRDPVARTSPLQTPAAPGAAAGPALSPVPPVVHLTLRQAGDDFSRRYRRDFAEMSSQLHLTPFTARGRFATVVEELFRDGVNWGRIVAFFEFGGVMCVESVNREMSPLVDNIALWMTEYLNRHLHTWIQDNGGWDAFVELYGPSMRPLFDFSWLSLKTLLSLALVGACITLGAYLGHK

| Compound | ASMS ratio (%) (n = 1) | ASMS ratio (%) (n = 2) | ASMS ratio (%) n = 1 (AS-MS, mixture library, Bcl-2) [%] | ASMS ratio (%) n = 2 (AS-MS, mixture library, Bcl-2) [%] | also measured |
| --- | --- | --- | --- | --- | --- |
| CCOc1cccc(-c2cc(CN3CCN(c4ccc(C(=O)N(C)CC56CC7CC(CC(C7)C5)C6)cc4)CC3)cc(OCC)c2)c1 [B3A055-01, N-(1-Adamantylmethyl)-4-[4-[[3-ethoxy-5-(3-ethoxyphenyl)phenyl]methyl]piperazin-1-yl]-N-methylbenzamide] |  |  |  |  | ASMS ratio (%) n = 1 [1]: 10.8%; ASMS ratio (%) n = 2 [1]: −12.7% |
| CCOc1cccc(-c2cc(CN3CCN(c4ccc(C(=O)NS(=O)(=O)CCC(F)(F)F)nn4)CC3)cc(C(F)(F)F)c2)c1 [B2N087-01] | 0.0 | 0.0 |  |  |  |
| CCOc1cccc(-c2csc(C(=O)N3CCN(c4ccc(C(=O)NS(C)(=O)=O)nn4)CC3)c2)c1 [B2I001-01, 6-[4-[4-(3-Ethoxyphenyl)thiophene-2-carbonyl]piperazin-1-yl]-N-methylsulfonylpyridazine-3-carboxamide] |  |  | 0.0 |  |  |
| CCOc1cccc(-c2cc(CN3CCN(c4ccc(C(=O)NCC56CC7CC(CC(C7)C5)C6)cc4)CC3)cc(OCC)c2)c1 [B1A055-01, N-(1-Adamantylmethyl)-4-[4-[[3-ethoxy-5-(3-ethoxyphenyl)phenyl]methyl]piperazin-1-yl]benzamide] |  |  |  |  | ASMS ratio (%) n = 1 [2]: −0.1%; ASMS ratio (%) n = 2 [2]: −14.4% |
| CCOc1cncc(-c2csc(C(=O)N3CCN(c4ccc(C(=O)Nc5ccc(OC)cc5)cc4)CC3)c2)c1 [B1O024-01, 4-[4-[4-(5-Ethoxypyridin-3-yl)thiophene-2-carbonyl]piperazin-1-yl]-N-(4-methoxyphenyl)benzamide] |  |  |  |  | ASMS ratio (%) n = 1 [1]: 3.6%; ASMS ratio (%) n = 2 [1]: 2.3% |
| CCOc1cncc(-c2cc(CN3CCN(c4ccc(C(=O)NS(=O)(=O)C(C)(C)C)nn4)CC3)cc(OCC)c2)c1 [B2L082-01, N-tert-Butylsulfonyl-6-[4-[[3-ethoxy-5-(5-ethoxypyridin-3-yl)phenyl]methyl]piperazin-1-yl]pyridazine-3-carboxamide] | 2.6 | −1.2 |  |  |  |
| CCOc1cncc(C#Cc2cc(C(=O)N3CCN(c4ccc(C(=O)Nc5ccc(OC)cc5)nn4)CC3)cc(C(F)(F)F)c2)c1 [B1O020-01, 6-[4-[3-[2-(5-Ethoxypyridin-3-yl)ethynyl]-5-(trifluoromethyl)benzoyl]piperazin-1-yl]-N-(4-methoxyphenyl)pyridazine-3-carboxamide] |  |  |  |  | ASMS ratio (%) n = 1 [1]: 8.6%; ASMS ratio (%) n = 2 [1]: −0.5% |
| CCOc1cncc(C#Cc2cc(C(=O)N3CCN(c4ccc(C(=O)Nc5ccc(OC)cc5)cc4)CC3)cc(C(F)(F)F)c2)c1 [B1O042-01, 4-[4-[3-[2-(5-Ethoxypyridin-3-yl)ethynyl]-5-(trifluoromethyl)benzoyl]piperazin-1-yl]-N-(4-methoxyphenyl)benzamide] |  |  |  |  | ASMS ratio (%) n = 1 [1]: 2.8%; ASMS ratio (%) n = 2 [1]: 2.1% |
| CCOc1cccc(-c2cc(CN3CCN(c4ccc(C(=O)NS(=O)(=O)CCC(F)(F)F)nn4)CC3)cc(OCC)c2)c1 [B2N081-01, 6-[4-[[3-Ethoxy-5-(3-ethoxyphenyl)phenyl]methyl]piperazin-1-yl]-N-(3,3,3-trifluoropropylsulfonyl)pyridazine-3-carboxamide] | 0.0 | 0.0 |  |  |  |
| CCOc1cccc(-c2ccc(CN3CCN(c4ccc(C(=O)NS(=O)(=O)c5ccc(NCCSc6ccccc6)c([N+](=O)[O-])c5)cc4)CC3)c(CC)c2)c1 [B2Q049-01, 4-[4-[[4-(3-Ethoxyphenyl)-2-ethylphenyl]methyl]piperazin-1-yl]-N-[3-nitro-4-(2-phenylsulfanylethylamino)phenyl]sulfonylbenzamide] |  |  | −2.4 | −4.8 |  |
| CCOc1cncc(C#Cc2cc(C(=O)N3CCN(c4ccc(C(=O)NS(=O)(=O)c5ccc(NCCSc6ccccc6)c([N+](=O)[O-])c5)nn4)CC3)cc(C(F)(F)F)c2)c1 [B2Q020-01, 6-[4-[3-[2-(5-Ethoxypyridin-3-yl)ethynyl]-5-(trifluoromethyl)benzoyl]piperazin-1-yl]-N-[3-nitro-4-(2-phenylsulfanylethylamino)phenyl]sulfonylpyridazine-3-carboxamide] |  |  | 6.1 | 5.6 |  |
| CCOc1cccc(C#Cc2cc(C(=O)N3CCN(c4ccc(C(=O)NS(=O)(=O)CC56CC7CC(CC(C7)C5)C6)cc4)CC3)cc(C(F)(F)F)c2)c1 [B2A041-01, N-(1-Adamantylmethylsulfonyl)-4-[4-[3-[2-(3-ethoxyphenyl)ethynyl]-5-(trifluoromethyl)benzoyl]piperazin-1-yl]benzamide] |  |  | 0.0 | −3.7 |  |
| CCOc1cncc(-c2ccc(C(=O)N3CCN(c4ccc(C(=O)NS(=O)(=O)c5ccc(NCCSc6ccccc6)c([N+](=O)[O-])c5)cc4)CC3)cc2C)c1 [B2Q026-01, 4-[4-[4-(5-Ethoxypyridin-3-yl)-3-methylbenzoyl]piperazin-1-yl]-N-[3-nitro-4-(2-phenylsulfanylethylamino)phenyl]sulfonylbenzamide] |  |  | 4.4 | 0.4 |  |
| 4-[4-[[3-(5-Ethoxypyridin-3-yl)-5-(trifluoromethoxy)phenyl]methyl]piperazin-1-yl]-N-propylbenzamide [B1M034-01] |  |  |  |  | ASMS ratio (%) n = 1 [2]: −0.3%; ASMS ratio (%) n = 2 [2]: −0.2% |
| CCOc1cccc(C#Cc2cncc(C(=O)N3CCN(c4ccc(C(=O)NS(=O)(=O)c5ccc(NCCSc6ccccc6)c([N+](=O)[O-])c5)nn4)CC3)c2)c1 [B2Q009-01, 6-[4-[5-[2-(3-Ethoxyphenyl)ethynyl]pyridine-3-carbonyl]piperazin-1-yl]-N-[3-nitro-4-(2-phenylsulfanylethylamino)phenyl]sulfonylpyridazine-3-carboxamide] |  |  | 16.5 | 0.5 |  |
| CCOc1cccc(-c2cc(C(=O)N3CCN(c4ccc(C(=O)NS(=O)(=O)C(C)(C)C)cc4)CC3)cc(C(F)(F)F)c2)c1 [B2L039-01, N-tert-Butylsulfonyl-4-[4-[3-(3-ethoxyphenyl)-5-(trifluoromethyl)benzoyl]piperazin-1-yl]benzamide] | 0.0 | 0.0 |  |  |  |
| CCOc1cccc(-c2ccc(CN3CCN(c4ccc(C(=O)NS(=O)(=O)CC56CC7CC(CC(C7)C5)C6)nn4)CC3)c(CC)c2)c1 [B2A075-01, N-(1-Adamantylmethylsulfonyl)-6-[4-[[4-(3-ethoxyphenyl)-2-ethylphenyl]methyl]piperazin-1-yl]pyridazine-3-carboxamide] |  |  | 4.6 | 4.4 |  |
| CCOc1cncc(-c2csc(CN3CCN(c4ccc(C(=O)NS(=O)(=O)C(C)(C)C)nn4)CC3)c2)c1 [B2L094-01, N-tert-Butylsulfonyl-6-[4-[[4-(5-ethoxypyridin-3-yl)thiophen-2-yl]methyl]piperazin-1-yl]pyridazine-3-carboxamide] | 0.2 | 1.8 |  |  |  |
| CCOc1cncc(C#Cc2ccccc2C(=O)N2CCN(c3ccc(C(=O)NS(=O)(=O)CCC(F)(F)F)cc3)CC2)c1 [B2N030-01, 4-[4-[2-[2-(5-Ethoxypyridin-3-yl)ethynyl]benzoyl]piperazin-1-yl]-N-(3,3,3-trifluoropropylsulfonyl)benzamide] | 0.0 | 0.0 |  |  |  |
| CCOc1cccc(-c2ccc(C(C)N3CCN(c4ccc(C(=O)NS(=O)(=O)C(C)(C)C)cc4)CC3)cc2)c1 (centres unmarked) [B2L097-01, N-tert-Butylsulfonyl-4-[4-[1-[4-(3-ethoxyphenyl)phenyl]ethyl]piperazin-1-yl]benzamide] | 0.0 | 0.0 |  |  |  |
| CCOc1cncc(C#Cc2ccccc2CN2CCN(c3ccc(C(=O)NS(=O)(=O)c4ccc(NCCSc5ccccc5)c([N+](=O)[O-])c4)cc3)CC2)c1 [B2Q070-01, 4-[4-[[2-[2-(5-Ethoxypyridin-3-yl)ethynyl]phenyl]methyl]piperazin-1-yl]-N-[3-nitro-4-(2-phenylsulfanylethylamino)phenyl]sulfonylbenzamide] |  |  | 14.3 | −9.0 |  |
